# Assay results reported in ChEMBL document CHEMBL5113408, “Design, synthesis and antitumour activity of novel 5(6)-amino-benzimidazolequinones containing a fused morpholine” (Eur J Med Chem, 2022).
# Activity calls are given as the source filed them. The rule behind the calls is not given here.
# What was measured:
# [1] = tested on: ECa-109 cell line; assay: Antiproliferative activity against human EC109 cells assessed as inhibition of cell growth by SRB assay; type: functional, cell-based
# [2] = tested on: MGC-803; assay: Antiproliferative activity against human MGC-803 cells assessed as inhibition of cell growth incubated for 24 to 72 hrs by SRB assay; type: functional, cell-based; settings: dose 0.25-8 µM, time 24-72 hrs, DDE = dose-dependent effect
# [3] = tested on: MGC-803; assay: Inhibition of colony formation in human MGC-803 cells incubated for 24 hrs with fresh medium replacement for every two days measured for 11 days by crystal voilet staining based assay; type: functional, cell-based; settings: dose 0.5-2 µM, time 11.0 day, DDE = dose-dependent effect
# [4] = tested on: HGC-27; assay: Induction of apoptosis in human HGC-27 cells incubated for 48 hrs by Annexin-V FITC staining based flow cytometry analysis; type: functional, cell-based; settings: dose 1-4 µM, DDE = dose-dependent effect
# [5] = tested on: MGC-803; assay: Induction of apoptosis in human MGC-803 cells assessed as increase in bax/bcl-2 expression level at 1 to 4 uM incubated for 48 hrs by Western blot analysis; type: functional, cell-based; settings: dose 1-4 µM
# [6] = tested on: HGC-27; assay: Induction of apoptosis in human HGC-27 cells assessed as increase in bax/bcl-2 expression level at 1 to 4 uM incubated for 48 hrs by Western blot analysis; type: functional, cell-based; settings: dose 1-4 µM
# [7] = tested on: MGC-803; assay: Induction of apoptosis in human MGC-803 cells assessed as decrease in caspase 3 protein expression level at 1 to 4 uM incubated for 48 hrs by Western blot analysis; type: functional, cell-based; settings: dose 1-4 µM
# [8] = tested on: HGC-27; assay: Induction of apoptosis in human HGC-27 cells assessed as decrease in caspase 3 protein expression level at 1 to 4 uM incubated for 48 hrs by Western blot analysis; type: functional, cell-based; settings: dose 1-4 µM
# [9] = tested on: MGC-803; assay: Induction of apoptosis in human MGC-803 cells assessed as decrease in caspase 9 protein expression level at 1 to 4 uM incubated for 48 hrs by Western blot analysis; type: functional, cell-based; settings: dose 1-4 µM
# [10] = tested on: HGC-27; assay: Induction of apoptosis in human HGC-27 cells assessed as decrease in caspase 9 protein expression level at 1 to 4 uM incubated for 48 hrs by Western blot analysis; type: functional, cell-based; settings: dose 1-4 µM
# [11] = tested on: MGC-803; assay: Induction of apoptosis in human MGC-803 cells assessed as increase in cleaved caspase 3 protein expression level at 1 to 4 uM incubated for 48 hrs by Western blot analysis; type: functional, cell-based; settings: dose 1-4 µM
# [12] = tested on: HGC-27; assay: Induction of apoptosis in human HGC-27 cells assessed as increase in cleaved caspase 7 protein expression level at 1 to 4 uM incubated for 48 hrs by Western blot analysis; type: functional, cell-based; settings: dose 1-4 µM
# [13] = tested on: HGC-27; assay: Induction of apoptosis in human HGC-27 cells assessed as increase in cleaved caspase 9 protein expression level at 1 to 4 uM incubated for 48 hrs by Western blot analysis; type: functional, cell-based; settings: dose 1-4 µM
# [14] = tested on: MGC-803; assay: Induction of cell cycle arrest in human MGC-803 cells assessed as accumulation of cells at G2/M phase at 2 uM incubated for 36 hrs by PI staining based flow cytometry analysis (reference value: 20.5%); type: functional
# [15] = tested on: HGC-27; assay: Induction of cell cycle arrest in human HGC-27 cells assessed as accumulation of cells at G2/M phase at 1 uM incubated for 36 hrs by PI staining based flow cytometry analysis (reference value: 26.2%); type: functional
# [16] = tested on: HGC-27; assay: Induction of cell cycle arrest in human HGC-27 cells assessed as accumulation of cells at G1 phase at 2 uM incubated for 36 hrs by PI staining based flow cytometry analysis (reference value: 49.6%); type: functional
# [17] = tested on: HGC-27; assay: Induction of cell cycle arrest in human HGC-27 cells assessed as accumulation of cells at S phase at 2 uM incubated for 36 hrs by PI staining based flow cytometry analysis (reference value: 8.87%); type: functional
# [18] = tested on: HGC-27; assay: Induction of cell cycle arrest in human HGC-27 cells assessed as accumulation of cells at G1 phase at 4 uM incubated for 36 hrs by PI staining based flow cytometry analysis (reference value: 49.6%); type: functional
# [19] = tested on: MGC-803; assay: Induction of cell cycle arrest in human MGC-803 cells assessed as decrease in p-cdc25c level at 1 to 4 uM by Western blot analysis; type: functional, cell-based; settings: dose 1-4 µM
# [20] = tested on: MGC-803; assay: Induction of cell cycle arrest in human MGC-803 cells assessed as decrease in cyclin-B1 level at 1 to 4 uM by Western blot analysis; type: functional, cell-based; settings: dose 1-4 µM
# [21] = tested on: HGC-27; assay: Induction of cell cycle arrest in human HGC-27 cells assessed as decrease in p-cdc25c level at 1 to 4 uM by Western blot analysis; type: functional, cell-based; settings: dose 1-4 µM
# [22] = tested on: MGC-803; assay: Induction of ROS generation in human MGC-803 cells at 1 to 4 uM incubated for 24 hrs by flow cytometry analysis; type: functional, cell-based; settings: dose 1-4 µM
# [23] = tested on: HGC-27; assay: Induction of ROS generation in human HGC-27 cells at 1 to 4 uM incubated for 24 hrs by flow cytometry analysis; type: functional, cell-based; settings: dose 1-4 µM
# [24] = tested on: HGC-27; assay: Activation of ROS/JNK signalling in human HGC-27 cells assessed as increase in p-ASK1 level by Western blot analysis; type: cell-based; settings: filed as activator, dose 1-4 µM, DDE = dose-dependent effect
# [25] = tested on: HGC-27; assay: Activation of ROS/JNK signalling in human HGC-27 cells assessed as increase in p-MKK4 level by Western blot analysis; type: cell-based; settings: filed as activator, dose 1-4 µM, DDE = dose-dependent effect
# [26] = tested on: HGC-27; assay: Induction of apoptosis in human HGC-27 cells incubated for 48 hrs by Annexin V-FITC and PI staining based flow cytometry analysis; type: functional
# [27] = tested on: MGC-803; assay: Induction of DNA damage in human MGC-803 cells assessed as appearance of longer comet tail at 4 uM; type: functional, cell-based
# [28] = tested on: HGC-27; assay: Induction of DNA damage in human HGC-27 cells assessed as appearance of longer comet tail at 4 uM; type: functional, cell-based
# [29] = tested on: MGC-803; assay: Antitumor activity against human MGC-803 cells xenografted with BALB/c mouse assessed as atrophied cells at 10 to 20 mg/kg, ip administered once every two days; type: functional, organism-based; settings: dose 10-20 mg/kg
# [30] = Toxicity in BALB/c mouse xenografted with human MGC-803 cells assessed as effect on body weight at 10 to 20 mg/kg, ip administered once every two days; type: organism-based; settings: in vivo, dose 10-20 mg/kg
# [31] = Toxicity in BALB/c mouse xenografted with human MGC-803 cells assessed as effect on uric acid level at 10 to 20 mg/kg, ip administered once every two days; type: organism-based; settings: in vivo, dose 10-20 mg/kg
# [32] = Toxicity in BALB/c mouse xenografted with human MGC-803 cells assessed as effect on creatinine level at 10 to 20 mg/kg, ip administered once every two days; type: organism-based; settings: in vivo, dose 10-20 mg/kg
# [33] = Toxicity in BALB/c mouse xenografted with human MGC-803 cells assessed as effect on AST level at 10 to 20 mg/kg, ip administered once every two days; type: organism-based; settings: in vivo, dose 10-20 mg/kg
# [34] = Toxicity in BALB/c mouse xenografted with human MGC-803 cells assessed as effect on heart at 10 to 20 mg/kg, ip administered once every two days measured after 15 days by H and E staining based assay; type: organism-based; settings: in vivo, 360 h, dose 10-20 mg/kg, time 15 day
# [35] = Toxicity in BALB/c mouse xenografted with human MGC-803 cells assessed as effect on spleen at 10 to 20 mg/kg, ip administered once every two days measured after 15 days by H and E staining based assay; type: organism-based; settings: in vivo, 360 h, dose 10-20 mg/kg, time 15 day
# [36] = Toxicity in BALB/c mouse xenografted with human MGC-803 cells assessed as effect on lung at 10 to 20 mg/kg, ip administered once every two days measured after 15 days by H and E staining based assay; type: organism-based; settings: in vivo, 360 h, dose 10-20 mg/kg, time 15 day
structure (smiles),measurement,setting,value
Cc1ccc(NC2=CC(=O)c3nc4n(c3C2=O)[C@H]2OC[C@@H](O)[C@H]2OC4)cc1C,IC50,[1],2820 nM
same,Activity,[2],Dde
same,inhibition,[3],Dde
same,Activity,[4],Dde
same,Activity,[5],Active
same,Activity,[6],Active
same,Activity,[7],Active
same,Activity,[8],Active
same,Activity,[9],Active
same,Activity,[10],Active
same,Activity,[11],Active
same,Activity,[12],Active
same,Activity,[13],Active
same,Activity,[14],24%
same,Activity,[15],28.8%
same,Activity,[16],33.5%
same,Activity,[17],10.7%
same,Activity,[18],28%
same,Activity,[19],Active
same,Activity,[20],Active
same,Activity,[21],Active
same,Activity,[22],Active
same,Activity,[23],Active
same,Activity,[24],Dde
same,Activity,[25],Dde
same,Activity,[26],54.5%
same,Activity,[27],Active
same,Activity,[28],Active
same,Activity,[29],Active
same,Activity,[30],Non-Toxic
same,Activity,[31],Non-Toxic
same,Activity,[32],Non-Toxic
same,Activity,[33],Non-Toxic
same,Activity,[34],Non-Toxic
same,Activity,[35],Non-Toxic
same,Activity,[36],Non-Toxic
